In brackets after ≈: the same amount, converted by molar mass. Where two headings read alike, the source gives them in different places.
Assays:
Format in all cases: cell-based
[1] = tested on: normal FL cells; assay: cells; details: FL normal cells, MTT; for IC50: read-out: IC50; for IC (total growth inhibition): read-out: TGI
How it was run: (§1)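 In this MTT proliferation screen, formazan formed over 4 h was read at 560 nm against a 690 nm reference. Each line was tested at least three times, and the IC50 was taken as the concentration inhibiting half of the cells.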

[2] = tested on: P. aeruginosa AGME ATCC 27853; assay: Microdilution MIC assay; details: Pseudomonas aeruginosa, ATCC27853; P. aeruginosa AGME ATCC 27853, 24 h at 35 °C
How it was run: (§2)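 Microwell dilution; 24 h, 35 °C; visual read; MIC = lowest conc. without turbidity.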

[3] = tested on: S. gordonii NCTC 7870; assay: Microdilution MIC assay; details: Streptococcus gordonii, NCTC7870; S. gordonii NCTC 7870, 24 h at 35 °C
How it was run: as §2

[4] = tested on: S. aureus MRSA ATCC 46300; assay: Microdilution MIC assay; details: Staphylococcus aureus; S. aureus MRSA ATCC 46300, 24 h at 35 °C; read-out: MIC
How it was run: as §2

[5] = tested on: S. mutans ATCC 35668; assay: Microdilution MIC assay; details: Streptococcus mutans, ATCC35668, 24 h, S. mutans ATCC 35668, 24 h at 35 °C; read-out: MIC
How it was run: as §2

[6] = tested on: A. actinomycetemcomitans ATCC 33384; assay: Microdilution MIC assay; details: Aggregatibacter actinomycetemcomitans, ATCC33384; A. actinomycetemcomitans ATCC 33384, 24 h at 35 °C
How it was run: as §2

[7] = tested on: S. aureus MSSA ATCC 29213; assay: Microdilution MIC assay; details: S. aureus MSSA ATCC 29213, 24 h at 35 °C
How it was run: as §2

[8] = tested on: E. faecalis VRE ATCC 19433; assay: Microdilution MIC assay; details: Enterococcus faecalis; E. faecalis VRE ATCC 19433, 24 h at 35 °C
How it was run: as §2

[9] = tested on: E. coli ESBL ATCC 35218; assay: Microdilution MIC assay; details: Escherichia coli, ATCC35218; E. coli ESBL ATCC 35218, 24 h at 35 °C
How it was run: as §2

[10] = tested on: S. aureus ATCC 25923; assay: Microdilution MIC assay; details: Staphylococcus aureus, ATCC25923, 24 h, S. aureus ATCC 25923, 24 h at 35 °C; read-out: MIC
How it was run: as §2

[11] = tested on: E. faecalis ATCC 29212; assay: Microdilution MIC assay; details: Enterococcus faecalis, ATCC29212, 24 h, E. faecalis ATCC 29212, 24 h at 35 °C; read-out: MIC
How it was run: as §2

[12] = tested on: E. coli ATCC 25922; assay: Microdilution MIC assay; details: Escherichia coli, ATCC25922; E. coli ATCC 25922, 24 h at 35 °C
How it was run: as §2

[13] = tested on: HeLa; assay: cells; details: Homo sapiens; for GI50 / IC50 / IC (total growth inhibition): MTT; for IC50: read-out: IC50; for IC (total growth inhibition): read-out: TGI; for LC50 (concentration causing 50% net cell loss): read-out: LC50
How it was run: as §1

[14] = tested on: A549; assay: cells; details: Homo sapiens; for LC50 (concentration causing 50% net cell loss): A549, read-out: LC50; for GI50 / IC50 / IC (total growth inhibition): A549, MTT; for IC50: read-out: IC50; for IC (total growth inhibition): read-out: TGI
How it was run: as §1

[15] = tested on: Hep3B; assay: cells; details: Homo sapiens; for GI50 / IC50 / IC (total growth inhibition): MTT; for IC50: read-out: IC50; for IC (total growth inhibition): read-out: TGI; for LC50 (concentration causing 50% net cell loss relative to time zero): read-out: LC50
How it was run: as §1

[16] = tested on: C6 (Rat brain glioma); assay: cells; details: Rattus norvegicus; for LC50 (concentration giving 50% net cell loss relative to time zero): read-out: LC50; for GI50 / IC50 / IC (total growth inhibition): C6, MTT; for IC50: read-out: IC50; for IC (total growth inhibition): read-out: TGI
How it was run: as §1

[17] = tested on: HT29; assay: cells; details: Homo sapiens; for LC50 (concentration giving 50% net cell loss relative to time zero): HT-29, read-out: LC50; for GI50 / IC50 / IC (total growth inhibition): HT-29, HT29, MTT; for IC50: read-out: IC50; for IC (total growth inhibition): read-out: TGI
How it was run: as §1

[18] = tested on: MCF7; assay: cells; details: Homo sapiens; for LC50 (concentration causing 50% net cell loss relative to time zero): MCF7, read-out: LC50; for GI50 / IC50 / IC (total growth inhibition): MCF7, MTT; for IC50: read-out: IC50; for IC (total growth inhibition): read-out: TGI
How it was run: as §1

[19] = Staphylococcus aureus, 24 h, read-out: MIC

Cc1ccc(-c2cc(-c3ccncc3)nc(N[C@@H]3O[C@H](CO)[C@@H](O)[C@H](O)[C@H]3O)n2)cc1 [Compound 9, N-[4-(4-methylphenyl)-6-pyridin-4-ylpyrimidin-2-yl]-β-D-glucopyranosylamine]
GI50 [1]: 7.04 µg/mL (≈ 16.6 µM) | IC50 [1]: > 500 µg/mL | IC (total growth inhibition) [1]: > 500 µg/mL | MIC [2]: > 1000 µg/mL | MIC [3]: 1000 µg/mL (≈ 2360 µM) | MIC [4]: 1000 µg/mL (≈ 2360 µM) | MIC [5]: 250 µg/mL (≈ 589 µM) | MIC [6]: 500 µg/mL (≈ 1180 µM) | MIC [7]: 125 µg/mL (≈ 294 µM) | MIC [7, 19]: 62.5 to 125 µg/mL (≈ 147 to 294 µM) | MIC [8]: 1000 µg/mL (≈ 2360 µM) | MIC [9]: > 1000 µg/mL | MIC [10]: 1000 µg/mL (≈ 2360 µM) | MIC [11]: 1000 µg/mL (≈ 2360 µM) | MIC [12]: > 1000 µg/mL | GI50 [13]: > 500 µg/mL | IC50 [13]: > 500 µg/mL | IC (total growth inhibition) [13]: > 500 µg/mL | LC50 (concentration causing 50% net cell loss) [13]: > 500 µg/mL | LC50 (concentration causing 50% net cell loss) [14]: > 500 µg/mL | GI50 [14]: > 500 µg/mL | IC50 [14]: > 500 µg/mL | IC (total growth inhibition) [14]: > 500 µg/mL | GI50 [15]: 4.61 µg/mL (≈ 10.9 µM) | IC50 [15]: > 500 µg/mL | IC (total growth inhibition) [15]: > 500 µg/mL | LC50 (concentration causing 50% net cell loss relative to time zero) [15]: > 500 µg/mL | LC50 (concentration giving 50% net cell loss relative to time zero) [16]: > 500 µg/mL | GI50 [16]: > 500 µg/mL | IC50 [16]: > 500 µg/mL | IC (total growth inhibition) [16]: > 500 µg/mL | LC50 (concentration giving 50% net cell loss relative to time zero) [17]: > 500 µg/mL | GI50 [17]: 4.3 µg/mL (≈ 10.1 µM) | IC50 [17]: > 500 µg/mL | IC (total growth inhibition) [17]: > 500 µg/mL | LC50 (concentration causing 50% net cell loss relative to time zero) [18]: > 500 µg/mL | GI50 [18]: 1.89 µg/mL (≈ 4.45 µM) | IC50 [18]: > 500 µg/mL | IC (total growth inhibition) [18]: > 500 µg/mL

CC(=O)OC[C@H]1O[C@@H](Nc2nc(-c3ccccn3)cc(-c3ccccc3C)n2)[C@H](OC(C)=O)[C@@H](OC(C)=O)[C@@H]1OC(C)=O [Compound 10, 2,3,4,6-tetra-O-acetyl-N-[4-(2-methylphenyl)-6-pyridin-2-ylpyrimidin-2-yl]-β-D-glucopyranosylamine]
GI50 [1]: 22.8 µg/mL (≈ 38.4 µM) | IC50 [1]: > 500 µg/mL | IC (total growth inhibition) [1]: > 500 µg/mL | MIC [2]: > 1000 µg/mL | MIC [3]: > 1000 µg/mL | MIC [4]: 1000 µg/mL (≈ 1690 µM) | MIC [5]: 500 µg/mL (≈ 844 µM) | MIC [6]: > 1000 µg/mL | MIC [7, 19]: > 1000 µg/mL | MIC [8]: 125 µg/mL (≈ 211 µM) | MIC [9]: > 1000 µg/mL | MIC [10]: > 1000 µg/mL | MIC [11]: 500 µg/mL (≈ 844 µM) | MIC [12]: > 1000 µg/mL | GI50 [13]: > 500 µg/mL | IC50 [13]: > 500 µg/mL | IC (total growth inhibition) [13]: > 500 µg/mL | LC50 (concentration causing 50% net cell loss) [13]: > 500 µg/mL | LC50 (concentration causing 50% net cell loss) [14]: > 500 µg/mL | GI50 [14]: > 500 µg/mL | IC50 [14]: > 500 µg/mL | IC (total growth inhibition) [14]: > 500 µg/mL | GI50 [15]: 7.53 µg/mL (≈ 12.7 µM) | IC50 [15]: > 500 µg/mL | IC (total growth inhibition) [15]: > 500 µg/mL | LC50 (concentration causing 50% net cell loss relative to time zero) [15]: > 500 µg/mL | LC50 (concentration giving 50% net cell loss relative to time zero) [16]: 486 µg/mL (≈ 820 µM) | GI50 [16]: 2.21 µg/mL (≈ 3.73 µM) | IC50 [16]: 21.9 µg/mL (≈ 36.9 µM) | IC (total growth inhibition) [16]: 9.19 µg/mL | LC50 (concentration giving 50% net cell loss relative to time zero) [17]: > 500 µg/mL | GI50 [17]: 2.1 µg/mL (≈ 3.54 µM) | IC50 [17]: 71.1 µg/mL (≈ 120 µM) | IC (total growth inhibition) [17]: > 500 µg/mL | LC50 (concentration causing 50% net cell loss relative to time zero) [18]: > 500 µg/mL | GI50 [18]: 1.66 µg/mL (≈ 2.8 µM) | IC50 [18]: > 500 µg/mL | IC (total growth inhibition) [18]: > 500 µg/mL

From PMC10387993, “New pyrimidine-N-β-D-glucosides: synthesis, biological evaluation, and molecular docking investigations” (Turkish Journal of Chemistry, 2023)
